# Experimental data: patent publication US20040014215A1, “Synchronised arabidopsis cell suspensions and uses thereof” (priority 2000, published 2004)
# Legend:
# Format in all cases: cell-based, Arabidopsis thaliana
# CycD3 = assay: Northern expression analysis after aphidicolin synchronisation of MM1 (maximum signal = 100%)
# Description: (§1) was analysed following the expression level of known cell cycle regulated genes. Synchronisation was performed as described in Example 2A, with the exception that two 7-day old cultures of the weekly sub-cultured cell suspension (210 ml each) were combined. 40 ml of combined culture was transferred into 200 ml of fresh MSS-medium in each of 10 separate flasks. After incubation for 24 hrs under conditions as described in Example 1, in the presence of 4.16 μg/ml aphidicolin, cells from 5 pooled flasks were washed through a nylon net (mesh size 47 μm) and washed with 2 litre MSS medium and shaken vigorously to remove the aphidicolin. Cells were transferred into a 50 ml plastic tube, washed again with MSS medium and centrifuged at 2500 rpm for 1 min (1075 rcf). Cells were resuspended and combined with the cells from the other 5 flasks similarly washed in a total volume of 300 ml fresh MSS-medium. 30 ml of this cell suspension was then added to 200 ml fresh MSS-medium in each of 10 separate flasks.
# (§2) 1) 25 ml for Northern blot (transferred into 50 ml plastic tube, centrifuged at 2500 rpm for 1 min, the supernatant discarded, and the cell pellet shock-frozen in liquid nitrogen before storing in −80° C. freezer)
# (§3) Samples were collected at the time point indicated (time of removal of aphidicolin equals time point 0 hrs) and were analysed for expression of the following genes by Northern blot:
# (§4) For each probe the maximum hybridisation signal obtained was defined as 100%.
# CDK-b2 = assay: as above
# Description: as §1, §2, §3, §4
# [1] = system: Arabidopsis cell suspension MM2d; assay: Aphidicolin block/release of MM2d: mitotic index and labelling index
# Description: This experiment was carried out as described for Example 1, except that cell line MM2d was used, and the culture conditions throughout the experiment were as described for MM2d in Example 1.
# Synchronisation was performed as described in Example 2A, with the exception that before adding aphidicolin, 20 ml of the weekly subcultured cell suspension was transferred into 100 ml fresh MSS-medium in each of 2 separate flasks and cultivated under conditions as described in Example 1 for MM2d. […] Samples were taken at the same time frame for flow cytometry to follow cell cycle transition.
# Samples were analysed by flow cytometry to determine the percentage of cells being in G1-, S- and G2M phase. The mitotic index (MI) and labelling index (LI) were independently determined (as described in Example 2A). Results are shown below in table II and in FIG. 1.
# Table II. Aphidicolin block/release of Arabidopsis cell suspension MM2d. Data are shown from analysis of samples obtained in the experiment described in Example 2B.
# [2] = 0 hrs after aphidicolin removal
# [3] = 2 hrs after aphidicolin removal
# [4] = 4 hrs after aphidicolin removal
# [5] = 6 hrs after aphidicolin removal
# [6] = 8 hrs after aphidicolin removal
# [7] = 10 hrs after aphidicolin removal
# [8] = 12 hrs after aphidicolin removal
# [9] = 14 hrs after aphidicolin removal
# [10] = 16 hrs after aphidicolin removal
# [11] = 18 hrs after aphidicolin removal
# [12] = 20 hrs after aphidicolin removal
# [13] = 22 hrs after aphidicolin removal
# [14] = 24 hrs after aphidicolin removal
# [15] = 26 hrs after aphidicolin removal
# [16] = 28 hrs after aphidicolin removal
# [17] = 30 hrs after aphidicolin removal
compound,measurement,setting,value
C[C@@]1(CO)[C@H](O)CC[C@@]2(C)[C@H]1CC[C@H]1C[C@@H]3C[C@@]12CC[C@]3(O)CO [aphidicolin],CycD3 %,CycD3; [2],12.10%
same,CycD3 Band intensity,CycD3; [2],465
same,CycD3 %,CycD3; [3],14.46%
same,CycD3 Band intensity,CycD3; [3],555
same,CycD3 %,CycD3; [4],43.55%
same,CycD3 Band intensity,CycD3; [4],1674
same,CycD3 %,CycD3; [5],76.31%
same,CycD3 Band intensity,CycD3; [5],2933
same,CycD3 %,CycD3; [6],72.80%
same,CycD3 Band intensity,CycD3; [6],2798
same,CycD3 %,CycD3; [7],77.13%
same,CycD3 Band intensity,CycD3; [7],2964
same,CycD3 %,CycD3; [8],85.55%
same,CycD3 Band intensity,CycD3; [8],3288
same,CycD3 %,CycD3; [9],100.0%
same,CycD3 Band intensity,CycD3; [9],3844
same,CycD3 %,CycD3; [10],79.41%
same,CycD3 Band intensity,CycD3; [10],3052
same,CycD3 %,CycD3; [11],79.09%
same,CycD3 Band intensity,CycD3; [11],3040
same,CycD3 %,CycD3; [12],94.06%
same,CycD3 Band intensity,CycD3; [12],3615
same,CycD3 %,CycD3; [13],59.40%
same,CycD3 Band intensity,CycD3; [13],2283
same,CycD3 %,CycD3; [14],26.53%
same,CycD3 Band intensity,CycD3; [14],1019
same,CycD3 %,CycD3; [15],51.71%
same,CycD3 Band intensity,CycD3; [15],1987
same,CycD3 %,CycD3; [16],64.80%
same,CycD3 Band intensity,CycD3; [16],2490
same,CycD3 %,CycD3; [17],70.93%
same,CycD3 Band intensity,CycD3; [17],2726
same,CDK-b2 %,CDK-b2; [2],7.78%
same,CDK-b2 Band intensity,CDK-b2; [2],1084
same,CDK-b2 %,CDK-b2; [3],12.90%
same,CDK-b2 Band intensity,CDK-b2; [3],1796
same,CDK-b2 %,CDK-b2; [4],8.22%
same,CDK-b2 Band intensity,CDK-b2; [4],1144
same,CDK-b2 %,CDK-b2; [5],12.09%
same,CDK-b2 Band intensity,CDK-b2; [5],1683
same,CDK-b2 %,CDK-b2; [6],28.47%
same,CDK-b2 Band intensity,CDK-b2; [6],3963
same,CDK-b2 %,CDK-b2; [7],49.90%
same,CDK-b2 Band intensity,CDK-b2; [7],6947
same,CDK-b2 %,CDK-b2; [8],87.45%
same,CDK-b2 Band intensity,CDK-b2; [8],12174
same,CDK-b2 %,CDK-b2; [9],100%
same,CDK-b2 Band intensity,CDK-b2; [9],13921
same,CDK-b2 %,CDK-b2; [10],55.84%
same,CDK-b2 Band intensity,CDK-b2; [10],7774
same,CDK-b2 %,CDK-b2; [11],67.57%
same,CDK-b2 Band intensity,CDK-b2; [11],9407
same,CDK-b2 %,CDK-b2; [12],47.80%
same,CDK-b2 Band intensity,CDK-b2; [12],6654
same,CDK-b2 %,CDK-b2; [13],22.78%
same,CDK-b2 Band intensity,CDK-b2; [13],3172
same,CDK-b2 %,CDK-b2; [14],13.73%
same,CDK-b2 Band intensity,CDK-b2; [14],1912
same,CDK-b2 %,CDK-b2; [15],22.86%
same,CDK-b2 Band intensity,CDK-b2; [15],3183
same,CDK-b2 %,CDK-b2; [16],18.55%
same,CDK-b2 Band intensity,CDK-b2; [16],2583
same,CDK-b2 %,CDK-b2; [17],22.19%
same,CDK-b2 Band intensity,CDK-b2; [17],3089
same,Labelling Index (%),[1]; 1 h after aphidicolin removal,19.41%
same,Mitotic index (%),[1]; 1 h after aphidicolin removal,0%
same,Labelling Index (%),[1]; 2 h after aphidicolin removal,35.47%
same,Mitotic index (%),[1]; 2 h after aphidicolin removal,0.2%
same,Labelling Index (%),[1]; 3 h after aphidicolin removal,69.46%
same,Mitotic index (%),[1]; 3 h after aphidicolin removal,0.4%
same,Labelling Index (%),[1]; 4 h after aphidicolin removal,66%
same,Mitotic index (%),[1]; 4 h after aphidicolin removal,0.6%
same,Labelling Index (%),[1]; 5 h after aphidicolin removal,39.22%
same,Mitotic index (%),[1]; 5 h after aphidicolin removal,1.21%
same,Labelling Index (%),[1]; 6 h after aphidicolin removal,16.05%
same,Mitotic index (%),[1]; 6 h after aphidicolin removal,0.92%
same,Labelling Index (%),[1]; 7 h after aphidicolin removal,13.27%
same,Mitotic index (%),[1]; 7 h after aphidicolin removal,0.71%
same,Labelling Index (%),[1]; 8 h after aphidicolin removal,9.6%
same,Mitotic index (%),[1]; 8 h after aphidicolin removal,1.87%
same,Labelling Index (%),[1]; 9 h after aphidicolin removal,8.23%
same,Mitotic index (%),[1]; 9 h after aphidicolin removal,2.41%
same,Labelling Index (%),[1]; 10 h after aphidicolin removal,9.23%
same,Mitotic index (%),[1]; 10 h after aphidicolin removal,6.09%
same,Labelling Index (%),[1]; 11 h after aphidicolin removal,4.6%
same,Mitotic index (%),[1]; 11 h after aphidicolin removal,6.7%
same,Labelling Index (%),[1]; 12 h after aphidicolin removal,1.46%
same,Mitotic index (%),[1]; 12 h after aphidicolin removal,10.72%
same,Labelling Index (%),[1]; 13 h after aphidicolin removal,2.78%
same,Mitotic index (%),[1]; 13 h after aphidicolin removal,11.06%
same,Labelling Index (%),[1]; 14 h after aphidicolin removal,3.61%
same,Mitotic index (%),[1]; 14 h after aphidicolin removal,10.99%
same,Labelling Index (%),[1]; 15 h after aphidicolin removal,2.73%
same,Mitotic index (%),[1]; 15 h after aphidicolin removal,6.74%
same,Labelling Index (%),[1]; 16 h after aphidicolin removal,2.28%
same,Mitotic index (%),[1]; 16 h after aphidicolin removal,5.79%
same,Labelling Index (%),[1]; 17 h after aphidicolin removal,1.96%
same,Mitotic index (%),[1]; 17 h after aphidicolin removal,4.49%
same,Labelling Index (%),[1]; 18 h after aphidicolin removal,3.3%
same,Mitotic index (%),[1]; 18 h after aphidicolin removal,4.01%
same,Labelling Index (%),[1]; 19 h after aphidicolin removal,7.62%
same,Mitotic index (%),[1]; 19 h after aphidicolin removal,2.38%
